± gives the expanded uncertainty stated by the source.
Experiments:
[1] = 101 kPa, Liquid; for speed of sound: Frequency=2.75 MHz, Pulse-echo method; for mass density: Vibrating tube method
[2] = refractive index (Na D-line) (dimensionless); conditions: 298.15 K; 101.33 kPa; Liquid; Standard Abbe refractometry
[3] = xn = mol fraction of the nth substance listed; conditions: 101 kPa, Liquid, x2 = 0; for speed of sound: Frequency=2.75 MHz, Pulse-echo method; for mass density: Vibrating tube method

Row | Compound | speed of sound ([1]; 293.15 K) [m/s] | mass density ([1]; 293.15 K) [kg/m3] | speed of sound ([1]; 298.15 K) [m/s] | mass density ([1]; 298.15 K) [kg/m3] | speed of sound ([1]; 303.15 K) [m/s] | mass density ([1]; 303.15 K) [kg/m3] | speed of sound ([1]; 308.15 K) [m/s] | mass density ([1]; 308.15 K) [kg/m3] | speed of sound ([1]; 313.15 K) [m/s] | mass density ([1]; 313.15 K) [kg/m3] | refractive index [2] | speed of sound ([3]; 293.15 K) [m/s] | mass density ([3]; 293.15 K) [kg/m3] | speed of sound ([3]; 298.15 K) [m/s] | mass density ([3]; 298.15 K) [kg/m3] | speed of sound ([3]; 303.15 K) [m/s] | mass density ([3]; 303.15 K) [kg/m3] | speed of sound ([3]; 308.15 K) [m/s] | mass density ([3]; 308.15 K) [kg/m3] | also measured
1 | CCCC[n+]1ccn(C)c1.O=S(=O)([N-]S(=O)(=O)C(F)(F)F)C(F)(F)F | 1237.9 ± 1.5 | 1439.23 ± 0.61 | 1226.7 ± 1.5 | 1434.44 ± 0.61 | 1215.6 ± 1.5 | 1429.65 ± 0.6 | 1204.6 ± 1.5 | 1424.88 ± 0.6 | 1193.7 ± 1.5 | 1420.12 ± 0.59 | 1.4265 ± 0.0008 | – | – | – | – | – | – | – | – | –
2 | CC#N [acetonitrile] | 1298.2 ± 1.2 | 782 ± 0.15 | 1277.7 ± 1.2 | 776.6 ± 0.15 | 1257.2 ± 1.2 | 771.18 ± 0.15 | 1236.9 ± 1.2 | 765.72 ± 0.15 | 1216.6 ± 1.2 | 760.24 ± 0.16 | 1.3416 ± 0.0008 | – | – | – | – | – | – | – | – | –
3 | CC#N [acetonitrile] + CCCC[n+]1ccn(C)c1.O=S(=O)([N-]S(=O)(=O)C(F)(F)F)C(F)(F)F | – | – | – | – | – | – | – | – | – | – | – | 1298.2 ± 1.2 | 782 ± 0.15 | 1277.7 ± 1.2 | 776.6 ± 0.15 | 1257.2 ± 1.2 | 771.18 ± 0.15 | 1236.9 ± 1.2 | 765.72 ± 0.15 | speed of sound ([3]; 313.15 K): 1216.6 ± 1.2 m/s; mass density ([3]; 313.15 K): 760.24 ± 0.16 kg/m3
4 | C1CCOC1 [tetrahydrofuran] | 1301.9 ± 1.2 | 887.52 ± 0.12 | 1277.5 ± 1.2 | 882.06 ± 0.13 | 1253.2 ± 1.2 | 876.57 ± 0.13 | 1229 ± 1.2 | 871.04 ± 0.13 | – | – | 1.4052 ± 0.0008 | – | – | – | – | – | – | – | – | –
5 | C1CCOC1 [tetrahydrofuran] + CCCC[n+]1ccn(C)c1.O=S(=O)([N-]S(=O)(=O)C(F)(F)F)C(F)(F)F | – | – | – | – | – | – | – | – | – | – | – | 1301.9 ± 1.2 | 887.52 ± 0.12 | 1277.5 ± 1.2 | 882.06 ± 0.13 | 1253.2 ± 1.2 | 876.57 ± 0.13 | 1229 ± 1.2 | 871.04 ± 0.13 | –

From the NIST ThermoML archive (doi:10.1021/je400781b)
